This test concerns the target EGFR WT (Homo sapiens (Human), UniProt P00533). Nature of the test: ErbB enzyme assay (CisBio HTRF-KinEASE-TK), EGFR WT. The note with it: ATP at Km (25 μM), 1 h incubation. The test is classed as biochemical. Summed up: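 Potency comes from a homogeneous time-resolved fluorescence kinase format measuring tyrosine substrate phosphorylation. Reactions and detection steps each run 1 h at ambient temperature. IC50 values are interpolated from 4-parameter logistic fits of percent-of-control data.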
For orientation: TR-FRET usually uses a lanthanide donor and a delayed reading to cut background.

The values that follow come from patent US20250129078A1, “ERBB2 INHIBITORS” (Cogent Biosciences, Inc., priority 2023, published 2025).

Where a name gives a salt, the structure may show the parent alone.

EGFR WT, sequence (P00533 25-1210): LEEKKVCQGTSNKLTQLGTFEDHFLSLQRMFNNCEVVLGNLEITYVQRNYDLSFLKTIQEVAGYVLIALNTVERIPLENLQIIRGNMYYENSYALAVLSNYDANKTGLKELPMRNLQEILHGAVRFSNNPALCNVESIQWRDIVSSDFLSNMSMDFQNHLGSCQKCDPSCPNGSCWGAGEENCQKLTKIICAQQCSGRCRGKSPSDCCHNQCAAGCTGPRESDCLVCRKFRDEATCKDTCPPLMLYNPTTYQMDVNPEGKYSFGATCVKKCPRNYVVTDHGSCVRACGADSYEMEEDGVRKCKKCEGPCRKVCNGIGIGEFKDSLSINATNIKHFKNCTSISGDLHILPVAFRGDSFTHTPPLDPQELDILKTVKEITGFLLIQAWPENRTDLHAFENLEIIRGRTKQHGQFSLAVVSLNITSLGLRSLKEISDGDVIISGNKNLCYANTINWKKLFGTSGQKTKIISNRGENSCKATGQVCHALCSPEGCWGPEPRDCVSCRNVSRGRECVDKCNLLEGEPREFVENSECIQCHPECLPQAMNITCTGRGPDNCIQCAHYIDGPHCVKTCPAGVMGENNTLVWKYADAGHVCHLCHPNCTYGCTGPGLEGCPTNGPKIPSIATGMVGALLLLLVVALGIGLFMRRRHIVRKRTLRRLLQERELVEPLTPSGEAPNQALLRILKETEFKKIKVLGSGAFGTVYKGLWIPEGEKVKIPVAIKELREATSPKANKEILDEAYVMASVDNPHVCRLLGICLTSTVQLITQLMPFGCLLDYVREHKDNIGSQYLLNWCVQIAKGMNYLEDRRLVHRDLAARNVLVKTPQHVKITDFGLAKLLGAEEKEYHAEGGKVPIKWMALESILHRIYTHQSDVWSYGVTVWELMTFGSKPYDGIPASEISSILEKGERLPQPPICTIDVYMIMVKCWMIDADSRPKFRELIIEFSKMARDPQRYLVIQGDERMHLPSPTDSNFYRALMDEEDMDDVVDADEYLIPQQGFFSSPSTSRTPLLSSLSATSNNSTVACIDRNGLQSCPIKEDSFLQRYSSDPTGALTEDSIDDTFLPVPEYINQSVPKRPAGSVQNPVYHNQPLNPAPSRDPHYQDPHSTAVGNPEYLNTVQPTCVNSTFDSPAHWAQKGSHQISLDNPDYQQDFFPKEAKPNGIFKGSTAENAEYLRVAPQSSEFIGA

With `Cc1cc(Nc2ncnc3ccc(N4CC[C@@H](C)N(C(=O)/C=C/C(F)F)CC4)nc23)ccc1Oc1ccn2ncnc2c1` [Compound 367, (R,E)-1-(4-(4-((4-([1,2,4]triazolo[1,5-a]pyridin-7-yloxy)-3-methylphenyl)amino)pyrido[3,2-d]pyrimidin-6-yl)-7-methyl-1,4-diazepan-1-y1)-4,4-difluorobut-2-en-1-one], the IC50 (as a rule, the concentration needed to halve the response being measured) was in the range of 0.5 to 1 µM.

On to `C=CC(=O)N[C@H]1C[C@H](C)CN(c2ccc3ncnc(Nc4ccc(Oc5ccc6c(c5)nnn6C)c(C)c4F)c3n2)C1` (single isomer, unassigned) [Compound 339], for which the IC50 was 0.1 to 0.5 µM.

In the case of `C=CC(=O)N1CCN(c2ccc3ncnc(Nc4ccc(Oc5cc(F)c6c(c5)nnn6C)c(C)c4F)c3n2)C[C@@H]1C1CC1` [Compound 292, (S)-1-(2-cyclopropyl-4-(4-((2-fluoro-4-((7-fluoro-1-methyl-1H-benzo[d][1,2,3]triazol-5-yl)oxy)-3-methylphenyl)amino)pyrido[3,2-d]pyrimidin-6-yl)piperazin-1-yl)prop-2-en-1-one], the IC50 lay in the range of 0.1 to 0.5 µM.

`C=CC(=O)N1CCN(c2ccc3ncnc(Nc4ccc(Oc5cc6nnn(C)c6c(C)c5F)c(C)c4)c3n2)C[C@H]1C` [Compound 288, (R)-1-(4-(4-((4-((6-fluoro-1,7-dimethyl-1H-benzo[d][1,2,3]triazol-5-yl)oxy)-3-methylphenyl)amino)pyrido[3,2-d]pyrimidin-6-yl)-2-methylpiperazin-1-yl)prop-2-en-1-one] displayed an IC50 of 0.1 to 0.5 µM.

For `C=CC(=O)N1CCN(c2ccc3ncnc(Nc4ccc(Oc5cc6nnn(C)c6c(F)c5C)c(C)c4F)c3n2)C[C@H]1C` [Compound 293, (R)-1-(4-(4-((2-fluoro-4-((7-fluoro-1,6-dimethyl-1H-benzo[d][1,2,3]triazol-5-yl)oxy)-3-methylphenyl)amino)pyrido[3,2-d]pyrimidin-6-yl)-2-methylpiperazin-1-yl)prop-2-en-1-one], the IC50 is 0.1 to 0.5 µM.

As for `C=CC(=O)N1CCN(c2ncc3ncnc(Nc4ccc(Oc5cc(F)c6c(c5)ncn6C)c(C)c4)c3n2)C[C@H]1C` [Compound 159, (R)-1-(4-(8-((4-((7-fluoro-1-methyl-1H-benzo[d]imidazol-5-yl)oxy)-3-methylphenyl)amino)pyrimido[5,4-d]pyrimidin-2-yl)-2-methylpiperazin-1-yl)prop-2-en-1-one], the IC50 is 0.05 to 0.1 µM.

Take `Cc1cc(Nc2ncnc3ccc(N4CCN(C(=O)/C=C/C(F)F)[C@@H](C)C4)nc23)ccc1Oc1ccc2c(c1)nnn2C` [Compound 369, (S,E)-4,4-difluoro-1-(2-methyl-4-(4-((3-methyl-4-((1-methyl-1H-benzo[d][1,2,3]triazol-5-yl)oxy)phenyl)amino)pyrido[3,2-d]pyrimidin-6-yl)piperazin-1-yl)but-2-en-1-one]: the IC50 lay within 0.1 to 0.5 µM.

Take `C=CC(=O)N1CCC(Oc2ncc3ncnc(Nc4ccc(Oc5ccc6c(c5)ncn6C)c(OC)c4)c3n2)CC1` [Compound 379, 1-(4-((8-((3-methoxy-4-((1-methyl-1H-benzo[d]imidazol-5-yl)oxy)phenyl)amino)pyrimido[5,4-d]pyrimidin-2-yl)oxy)piperidin-1-yl)prop-2-en-1-one]: the IC50 was 0.1 to 0.5 µM.

The compound `C=CC(=O)N[C@H]1CN(c2ccc3ncnc(Nc4ccc(Oc5ccc6c(c5)nnn6C)c(C)c4F)c3n2)CC[C@H]1C` [Compound 341, N-((3R,4R)-1-(4-((2-fluoro-3-methyl-4-((1-methyl-1H-benzo[d][1,2,3]triazol-5-yl)oxy)phenyl)amino)pyrido[3,2-d]pyrimidin-6-yl)-4-methylpiperidin-3-yl)acrylamide] gave an IC50 of at least 1 µM.

As for `C=CC(=O)N1CCN(c2ccc3ncnc(Nc4ccc(Oc5ccc6c(c5)nnn6C)c(C)c4)c3n2)C[C@H]1CC#N` [Compound 84, (R)-2-(1-acryloyl-4-(4-((3-methyl-4-((1-methyl-H-benzo[d][1,2,3]triazol-5-yl)oxy)phenyl)amino)pyrido[3,2-d]pyrimidin-6-yl)piperazin-2-yl)acetonitrile], the IC50 was below 0.05 µM.

Regarding `C=CC(=O)N1CCN(c2ccc3ncnc(Nc4ccc(Oc5ccc6c(c5)nnn6C)c(C)c4)c3n2)C[C@H]1COC` [Compound 77, (S)-1-(2-(methoxymethyl)-4-(4-((3-methyl-4-((1-methyl-1H-benzo[d][1,2,3]triazol-5-yl)oxy)phenyl)amino)pyrido[3,2-d]pyrimidin-6-yl)piperazin-1-yl)prop-2-en-1-one], the IC50 is below 0.05 µM.

`C=CC(=O)N1CC2CC1CN2c1ccc2ncnc(Nc3ccc(Oc4ccc5c(c4)nnn5C)c(C)c3)c2n1` (centres unmarked) [Compound 81, 1-(5-(4-((3-methyl-4-((1-methyl-1H-benzo[d][1,2,3]triazol-5-yl)oxy)phenyl)amino)pyrido[3,2-d]pyrimidin-6-yl)-2,5-diazabicyclo[2.2.1]heptan-2-yl)prop-2-en-1-one] yielded an IC50 below 0.05 µM.

On to `C=CC(=O)N[C@H]1C[C@H](C)CN(c2ncc3ncnc(Nc4ccc(Oc5ccc6c(c5)nnn6C)c(C)c4F)c3n2)C1` (single isomer, unassigned) [Compound 202], for which the IC50 was in the range of 0.5 to 1 µM.

Compound `C=CC(=O)N1CCN(c2ncc3ncnc(Nc4ccc(Oc5cc(F)c6c(c5)nnn6C)c(C)c4)c3n2)C[C@H]1C` [Compound 171, (R)-1-(4-(8-((4-((7-fluoro-1-methyl-1H-benzo[d][1,2,3]triazol-5-yl)oxy)-3-methylphenyl)amino)pyrimido[5,4-d]pyrimidin-2-y1)-2-methylpiperazin-1-yl)prop-2-en-1-one] yielded an IC50 of 0.05 to 0.1 µM.

The compound `C=CC(=O)N1CCN(c2ncc3ncnc(Nc4ccc(Oc5ccc6c(c5)nnn6C)c(C)c4F)c3n2)CC1` [Compound 7, 1-(4-(8-((2-fluoro-3-methyl-4-((1-methyl-1H-benzo[d][1,2,3]triazol-5-yl)oxy)phenyl)amino)pyrimido [5,4-d]pyrimidin-2-y1)piperazin-1-yl)prop-2-en-1-one] registered a 50% inhibitory concentration (IC50) below 0.05 µM.

Compound `C=CC(=O)N1C2C=C(c3ccc4ncnc(Nc5cc(C)c(Oc6ccc7c(c6)nnn7C)cc5OC)c4n3)CC1CCC2` (centres unmarked) [Compound 413, 1-(3-(4-((2-methoxy-5-methyl-4-((1-methyl-1H-benzo[d][1,2,3]triazol-5-yl)oxy)phenyl)amino)pyrido[3,2-d]pyrimidin-6-yl)-9-azabicyclo[3.3.1]non-2-en-9-yl)prop-2-en-1-one trifluoroacetate] registered an IC50 of at least 1 µM.

Turning to `C=CC(=O)N[C@H]1CCCN(c2ncc3ncnc(Nc4ccc(Oc5ccc6c(c5)nnn6C)c(C)c4F)c3n2)CC1` [Compound 168, (S)-N-(1-(8-((2-fluoro-3-methyl-4-((1-methyl-1H-benzo[d][1,2,3]triazol-5-yl)oxy)phenyl)amino)pyrimido[5,4-d]pyrimidin-2-yl)azepan-4-yl)acrylamide], the IC50 fell in the range of 0.5 to 1 µM.

In the case of `C=CC(=O)N1CCC(Oc2ncc3ncnc(Nc4ccc(Oc5ccc6c(c5)nnn6C)c(C)c4)c3n2)CC1` [Compound 390, 1-(4-((8-((3-methyl-4-((1-methyl-1H-benzo[d][1,2,3]triazol-5-yl)oxy)phenyl)amino)pyrimido[5,4-d]pyrimidin-2-yl)oxy)piperidin-1-yl)prop-2-en-1-one], the IC50 is below 0.05 µM.

For the compound `Cc1cc(Nc2ncnc3ccc(N4CC5CCC(C4)N5C(=O)/C=C/C(F)F)nc23)ccc1Oc1ccc2c(c1)nnn2C` [Compound 358, (E)-4,4-difluoro-1-(3-(4-((3-methyl-4-((1-methyl-1H-benzo[d][1,2,3]triazol-5-yl)oxy)phenyl)amino)pyrido[3,2-d]pyrimidin-6-yl)-3,8-diazabicyclo[3.2.1]octan-8-yl)but-2-en-1-one], the IC50 lay in the range of 0.05 to 0.1 µM.

Consider `C=CC(=O)N1CCCN(c2ncc3ncnc(Nc4ccc(Oc5ccc6c(c5)nnn6C)c(C)c4)c3n2)C[C@H]1C` [Compound 227, (R)-1-(2-methyl-4-(8-((3-methyl-4-((1-methyl-1H-benzo[d][1,2,3]triazol-5-yl)oxy)phenyl)amino)pyrimido[5,4-d]pyrimidin-2-yl)-1,4-diazepan-1-yl)prop-2-en-1-one], for which the IC50 was at least 1 µM.

On to `C=CC(=O)N[C@@H]1CCN(c2ccc3ncnc(Nc4ccc(Oc5ccc6c(c5)nnn6C)c(C)c4F)c3n2)C[C@H]1F` [Compound 287, N-((3R,4R)-3-fluoro-1-(4-((2-fluoro-3-methyl-4-((1-methyl-1H-benzo[d][1,2,3]triazol-5-yl)oxy)phenyl)amino)pyrido[3,2-d]pyrimidin-6-yl)piperidin-4-yl)acrylamide], for which the IC50 is 0.1 to 0.5 µM.

`Cc1cc(Nc2ncnc3cnc(N4CCN(C(=O)/C=C/C(F)F)CC4)nc23)ccc1Oc1ccc2c(c1)nnn2C` [Compound 216, 4,4-difluoro-1-(4-(8-((3-methyl-4-((1-methyl-1H-benzo[d][1,2,3]triazol-5-yl)oxy)phenyl)amino)pyrimido [5,4-d]pyrimidin-2-yl)piperazin-1-yl)but-2-en-1-one] showed a half-inhibitory concentration (IC50) of 0.05 to 0.1 µM.

Take `C=C(F)C(=O)N1CCN(c2ncc3ncnc(Nc4ccc(Oc5ccc6c(c5)nnn6C)c(C)c4)c3n2)C[C@@H]1COC` [Compound 193, (R)-2-fluoro-1-(2-(methoxymethyl)-4-(8-((3-methyl-4-((1-methyl-1H-benzo[d][1,2,3]triazol-5-yl)oxy)phenyl)amino)pyrimido[5,4-d]pyrimidin-2-yl)piperazin-1-yl)prop-2-en-1-one]: the IC50 was at least 1 µM.

`C=CC(=O)N1CCN(c2ccc3ncnc(Nc4cc(Cl)c(Oc5ccc6c(c5)nnn6C)cc4F)c3n2)CC1` [Compound 244, 1-(4-(4-((5-chloro-2-fluoro-4-((1-methyl-1H-benzo[d][1,2,3]triazol-5-yl)oxy)phenyl)amino)pyrido[3,2-d]pyrimidin-6-yl)piperazin-1-yl)prop-2-en-1-one] gave an IC50 of 0.1 to 0.5 µM.

Compound `C=CC(=O)N1CCN(c2ncc3ncnc(Nc4ccc(Oc5cc6nnn(C)c6c(C)c5F)c(C)c4)c3n2)CC1` [Compound 141, 1-(4-(8-((4-((6-fluoro-1,7-dimethyl-1H-benzo[d][1,2,3]triazol-5-yl)oxy)-3-methylphenyl)amino)pyrimido[5,4-d]pyrimidin-2-yl)piperazin-1-yl)prop-2-en-1-one] displayed an IC50 of 0.1 to 0.5 µM.

Regarding `C=CC(=O)N[C@@H]1C[C@@H](C)CN(c2ccc3ncnc(Nc4ccc(Oc5ccc6c(c5)nnn6C)c(C)c4F)c3n2)C1` (single isomer, unassigned) [Compound 338], the IC50 lay in the range of 0.1 to 0.5 µM.
